Laboratory results: PubChem BioAssay (NCI)
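Compound exposure: 48 hours, 5 concentrations, 96-well plates. Abbreviation: GI50, concentration required for 50% inhibition of growth. TGI denotes the concentration required for complete inhibition of growth.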

Tests used:
Experiment in all cases: NCI anticancer screen, dose series, 48 h
[1] = system: HCT-116 colon
[2] = system: A549 NSCLC
[3] = system: MALME-3M melanoma
[4] = system: UACC-62 melanoma
[5] = system: TK-10 renal
[6] = system: LOX IMVI melanoma
[7] = system: SNB-19 CNS
[8] = system: NCI-H460 lung
[9] = system: HCT-15 colon

Row | SMILES | GI50 [1] [µM] | TGI [1] [µM] | GI50 [2] [µM] | TGI [2] [µM] | GI50 [3] [µM] | TGI [3] [µM] | GI50 [4] [µM] | TGI [4] [µM] | GI50 [5] [µM] | TGI [5] [µM] | GI50 [6] [µM] | TGI [6] [µM] | GI50 [7] [µM] | TGI [7] [µM] | GI50 [8] [µM] | TGI [8] [µM] | GI50 [9] [µM] | TGI [9] [µM]
1 | COc1ccc(-c2c3c(N)nc(-c4ccncc4)nc3nc3c2c(C)nn3-c2ccccc2)cc1 | 2.46 | 13.6 | 2.4 | 35.1 | 14.5 | > 100 | 4.87 | 51.9 | 3.71 | 14.6 | 10.1 | > 100 | 65.1 | > 100 | 3.3 | > 100 | > 100 | > 100
2 | O=C1/C(=C\c2c[nH]c3ccccc23)c2ccccc2N1c1c(Cl)cccc1Cl | 1.3 | 2.56 | 2.62 | 7.79 |  |  | 1.33 | 2.64 | 2.17 | 5 | 1.59 | 3.09 | 2.77 | 13.5 | 1.66 | 3.37 | 1.16 | 2.92
3 | Nc1ccccc1C#C/C=C\C#Cc1cccs1 | 9.55 | 46.5 | 10.4 | > 42.5 | 5.38 | 29.2 | 5.96 | 19.4 | 17.3 | 39.8 | 3.55 | 14.7 | 43.5 | > 100 | 13.7 | 42.5 | 9.45 | 43.7
4 | O=C1c2cccnc2C(=O)c2nc3cc(N4CCN(C5CC5)CC4)ccc3nc21 | 0.789 | 7.12 | 0.213 | 0.669 | 0.178 | 0.457 | 0.222 | 0.631 | 2.19 | 7.81 | 0.416 | 1.86 | 0.465 | 3.63 | 0.137 | 0.352 | 0.257 | 1.28
5 | COC(C(=O)[O][Ge]([CH3])([CH3])[CH3])c1ccccc1 (stereo not given) | > 100 | > 100 | > 100 | > 100 | > 100 | > 100 | > 100 | > 100 | > 100 | > 100 | > 100 | > 100 | > 100 | > 100 | > 100 | > 100 | > 100 | > 100
6 | NCCOCCOCCNc1nc(Cc2ccccc2)nc(NCCCN2CCCC2=O)n1 | > 100 | > 100 | > 100 | > 100 | > 100 | > 100 | > 100 | > 100 |  |  | > 100 | > 100 |  |  | > 100 | > 100 | > 100 | > 100
7 | CC1(C)CC(=O)c2c(C(F)(F)F)nn(-c3ccc(C(N)=O)c(NC4CCC(OC(=O)CN)CC4)c3)c2C1 (stereo not given) | 0.0405 | 31.6 | 0.0666 | 32.8 | 0.0468 | > 100 | 0.0507 | 14.5 | 0.0592 | > 100 | 0.0616 | 0.33 | 0.142 | > 100 | 0.0502 | > 100 | 0.12 | > 93.6
8 | COc1cccc(-n2ncc3c(N/N=C/c4ccc(C(=O)NCCN(C)C)cc4)ncnc32)c1 | 2.76 | 6.21 | 3.33 | 6.91 | 3.43 | 7.81 | 3.72 | 7.39 | 3.4 | 6.8 | 1.28 | 5.62 | 5.07 | 9.75 | 3.23 | 7.24 | 2.85 | 6.83
9 | O=C(O)/C=C\C(=O)N1C/C(=C\c2ccccc2Cl)C(=O)/C(=C/c2ccccc2Cl)C1 | 1.6 | 3.45 | 3.01 | 13 | 3.96 | 18.4 | 1.88 | 3.97 | 4.47 | 12.3 | 1.56 | 3.71 | 1.98 | 5.34 |  |  | 2.3 | 6.44
10 | COc1ccc(-c2nn3c(-c4cc(F)c(Cl)cc4Cl)nnc3s2)cc1 | 20.8 | 52.9 | 39.1 | > 100 | 26.8 | > 100 | 21.8 | > 100 | 56.5 | > 100 | 26.4 | > 100 | 39.4 | > 100 | 22.4 | 86.5 | 18.1 | > 100
11 | O=c1cc(-c2ccccc2)[nH]c2ccccc12 | 0.547 | > 100 | 1.88 | > 100 | > 100 | > 100 | 0.519 | > 100 |  | > 100 | 2.72 | > 100 | 0.881 | > 100 | 0.398 | > 50.9 | 0.481 | > 100
12 | COC(=O)[C@H](C[C@H](Cc1ccccc1)NC(=O)c1csc([C@@H](C[C@H](C(C)C)N(C)C(=O)[C@@H](NC(=O)[C@H]2CCCCN2C)C(C)C)OC(C)=O)n1)NC(=O)OCc1ccccc1 | < 0.0009 |  | 0.00156 | > 9 | < 0.0009 | 2.67 | < 0.0009 | > 9 | 0.11 | > 9 | < 0.0009 | > 9 | < 0.0009 | > 9 | < 0.0009 | > 9 | 0.00401 | > 9
13 | COc1ccc(/C=C(/C#N)C(N)=O)cc1OC |  | > 100 |  | > 100 |  | > 100 |  | > 100 |  | > 100 |  | > 100 |  | > 100 |  | > 100 |  | > 100
14 | COC(=O)[C@@]1(C)CC[C@]2(C)CC[C@]3(C)C4=CC=C5C(=CC(=O)C(O)=C5C)[C@]4(C)[C@@H](O)C[C@@]3(C)[C@@H]2C1 | 3.67 | 14.3 | 15.9 | 30.1 | 4.91 | 16.2 | 8.59 | 18.9 | 4.77 | 15.7 | 10.4 | 21.3 | 12.4 | 23.8 | 13.4 | 25.5 | 5.07 | 17.7
15 | Cc1ccccc1[P+](Cc1ccccc1)(c1ccccc1)c1ccccc1 | 1.92 | > 100 | 3.07 | > 100 |  |  | 1.36 | 11.9 |  |  | 2.27 | 15.3 | 2.8 | > 100 | 2.23 | 10.7 | 23.5 | > 100
16 | COc1cc(/C=C/c2cc(O)c3cc(C(C)=O)c(=O)oc3c2)cc2c1O[C@]1(C)CC[C@@H](O)C(C)(C)[C@H]1C2 | > 19.7 | > 52.3 | > 24.2 | > 53.2 |  | > 33 |  | > 27.8 | > 42.7 | > 77.7 |  | > 42.2 | > 21.9 | > 95.4 |  | > 53.2 |  | > 31.8
17 | COc1cc(C2CC(c3ccc4c(c3)OCO4)=NN2C=O)cc(OC)c1OC (stereo not given) | 1.52 | > 100 | > 24.5 | > 100 | 1.93 | > 100 | 2.21 | > 100 | > 29.9 | > 100 | 1.27 | > 100 | 6.3 | > 100 | 1.37 | > 100 | 1.58 | > 100
18 | NCCn1c(=O)[nH]c(=O)[nH]c1=S | > 100 | > 100 | > 100 | > 100 | > 100 | > 100 | > 100 | > 100 | > 100 | > 100 | > 100 | > 100 | > 100 | > 100 | 39.2 | > 100 | 96.7 | > 100
19 | CN(C)CCCNC(CC#N)CCC#N (stereo not given) |  | > 10 |  | > 10 |  | > 10 |  | > 10 |  | > 10 |  | > 10 |  | > 10 |  | > 10 |  | > 10
20 | O=c1/c(=C/c2ccccc2F)sc2nc3ccccc3n12 |  | > 100 |  | > 100 |  | > 100 |  | > 100 |  | > 100 |  | > 100 |  | > 100 |  | > 100 |  | > 100
21 | C=CCOc1cccc(/C=C2\SC(=Nc3ccc(O)cc3)NC2=O)c1 | 0.408 | 5.38 | 0.717 | 14.9 | 2.48 | 21.9 | 0.808 | 17.4 | 4.57 | 18.8 | 0.543 | 12.7 | 0.531 | 36.8 | 0.389 | 5.2 | 0.358 | > 100
22 | COc1ccc(-c2ccc(/C=N/n3c(COc4ccc(Cl)cc4Cl)nn(CN4CCOCC4)c3=S)o2)c([N+](=O)[O-])c1 | 16.5 | 30.1 | 24.1 | > 100 | 24.6 | 52.7 | 87.6 | > 100 | 14.1 | 49.2 |  |  | 28.7 | > 100 | 25.6 | > 100 | 26.9 | > 100
23 | CC1=C(Oc2ccccc2)C(CCC(=O)O)c2c(O)cc(Cl)c(O)c21 (stereo not given) |  | > 100 |  | > 100 |  |  |  |  |  | > 100 |  | > 100 |  | > 100 |  | > 100 |  | > 100
24 | Cc1ccc(-c2cn3ccnc3c(-c3ccc(Cl)cc3)n2)cc1 | 0.292 | > 33.8 | 1.33 | > 49.8 |  |  | 0.137 | 35.9 | 0.419 | 24.8 | 0.384 | 12.4 | 1.39 | > 65.4 | 0.0916 | 13.1 | 1.23 | > 35.6
25 | COc1ccc(-c2csc(N(C(=O)N3CCN(c4cc5c(cc4F)c(=O)c(C(=O)O)cn5C4CC4)CC3)c3ccccc3)n2)cc1 | 0.897 | > 63.7 | 3.01 | 12.1 | 2.64 | 7.54 | 2.24 | 8.91 | 1.7 | 39.9 |  |  | 1.11 | > 100 | 3.12 | > 100 | 3.19 | > 100
26 | CCCC(C)c1cc(Cc2cc(Cl)cc(Cl)c2O)c(O)c(Cc2cc(Cl)cc(Cl)c2O)c1 (stereo not given) | 0.384 | 3.97 | 2.19 | 12.5 | 1.77 | 6.75 | 0.629 | 4.2 | 2.3 | 11.8 | 2.44 | 8.89 |  |  | 1.02 | 9.34 | 0.336 | 2.44
27 | Cc1ccc(N=Nc2c(O)c(C(=O)O)cc3ccccc23)cc1C |  | > 100 |  | > 100 |  | > 100 |  | > 100 |  | > 100 |  |  |  | > 100 |  | > 100 |  | > 100
28 | COc1ccc(-c2n/c(=C\c3c(O)[nH]c4ccc(OC)cc34)cc3c2=Nc2ccccc2-3)cc1 | 1.85 | 3.33 | 3.43 | 66.2 |  |  |  |  | 2.09 | 3.87 | 19.9 | 75.4 | 3.88 | > 100 |  |  |  | 
29 | O=C(/C=C/c1ccccc1)c1cc(Br)ccc1O |  | 32.3 |  | 52.2 |  |  |  | 27.4 |  | 31.6 |  | 27.5 |  | 35.8 |  | 33.7 |  | 34.9
30 | CCCCC(CC)CN=C(N)NC(N)=NCCCCCCN=C(N)NC(N)=NCC(CC)CCCC (stereo not given) |  |  |  |  |  |  | 1.84 | 4.12 | 4.03 | > 100 |  |  |  |  |  |  | 2.98 | 16.5
